Experimental findings from patent EP1641803B1, “THIENOPYRIMIDINE DERIVATIVES AS POTASSIUM CHANNEL INHIBITORS” (Xention Limited, priority 2003, dated 2004) are described below.

One assay has as its target hKv1.5 (Homo sapiens, UniProt P22460). Nature of the assay: Kv1.5 Autopatch Electrophysiology (whole cell patch-clamp). Type of assay: cell-based. The settings on record: compound at 1µM, room temperature (22-24°C), held at -80mV, step to 0mV for 1000ms, total charge measured. Summed up: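 Whole-cell automated patch-clamp at 22-24°C, compounds tested at 1µM in external bather (KCl/K-gluconate, pH 7.4; KCl/EGTA pipette). Cells held at -80mV and stepped to 0mV for 1000ms every 5s; only cells with IK > 500 pA and Rseries ≤18 MΩ used. Read-out: total charge over the whole step.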
A general note: In patch-clamp work, channel activity is measured electrically.

The target in another assay is T1, human Kv1.5 (Homo sapiens, UniProt P22460).
T1 construct: expressed in transfected cells
Nature of the assay: Kv1.5 Rb+ Efflux Assay. Type of assay: cell-based. The note with it: inhibition of 86Rb+ efflux through Kv1.5; cells stably transfected with human Kv1.5; 10 point concentration response curves n=2; normalised to 2.5mM 4 amino-pyridine block. Summed up:
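Cells stably expressing human Kv1.5 loaded with ⁸⁶Rb⁺ ≥3 h, preincubated 10 min at room temperature with compound, then depolarised with high-KCl (145mM) buffer for 10 min; effluxed ⁸⁶Rb⁺ counted by Cerenkov emission (alternatively ⁸⁵Rb⁺ by atomic absorption). Inhibition normalised to 2.5mM 4-aminopyridine block; IC50 from 10-point curves, n=2, variable-slope sigmoidal fit.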

SMILES strings stand for the structures.

T1 sequence (P22460 whole entry): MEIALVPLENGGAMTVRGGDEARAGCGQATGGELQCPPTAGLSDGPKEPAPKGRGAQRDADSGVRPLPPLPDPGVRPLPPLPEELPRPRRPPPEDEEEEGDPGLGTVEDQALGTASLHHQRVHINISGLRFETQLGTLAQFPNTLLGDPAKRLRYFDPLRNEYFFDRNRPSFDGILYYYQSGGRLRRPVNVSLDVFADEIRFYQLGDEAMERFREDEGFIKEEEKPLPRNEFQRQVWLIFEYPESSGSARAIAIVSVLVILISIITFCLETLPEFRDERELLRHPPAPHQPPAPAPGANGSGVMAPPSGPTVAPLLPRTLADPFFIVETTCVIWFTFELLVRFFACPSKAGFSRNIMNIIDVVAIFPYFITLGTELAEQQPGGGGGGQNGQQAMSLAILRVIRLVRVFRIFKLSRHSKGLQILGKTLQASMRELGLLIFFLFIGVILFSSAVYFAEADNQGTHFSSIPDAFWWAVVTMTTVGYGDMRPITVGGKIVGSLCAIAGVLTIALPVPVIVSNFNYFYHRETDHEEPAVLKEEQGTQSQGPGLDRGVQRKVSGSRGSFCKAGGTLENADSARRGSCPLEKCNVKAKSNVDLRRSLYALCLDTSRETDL
Sequence of hKv1.5 (P22460 whole entry): as above

As usually defined, the inhibition is the share of the control response that was lost under treatment. A high value points to a response far below the control. The IC50 is the concentration that gives 50% inhibition. As for `c1coc(CNc2ncnc3scc(C4CCCCC4)c23)c1` [Example 147, (5-Cyclohexyl-thieno[2,3-d]pyrimidin-4-yl)-furan-2-ylmethyl-amine], at hKv1.5, the inhibition at 1 µM was determined as 71%. On human Kv1.5, the IC50 stood at 2520 nM.

In the case of `CC(C)c1nc(NCc2ccccn2)c2c(-c3ccccc3)csc2n1` [Example 148, (2-Isopropyl-5-phenyl-thieno[2,3-d]pyrimidin-4-yl)-pyridin-2-ylmethyl-amine], at hKv1.5, the inhibition at 1 µM turned out to be 88%. Also, the IC50 at human Kv1.5 was determined as 1510 nM.

Take `Cc1nc(NCc2ccco2)c2c(-c3ccccc3)csc2n1` [Example 150, Furan-2-ylmethyl-(2-methyl-5-phenyl-thieno[2,3-d]pyrimidin-4-yl)-amine]: the inhibition at 1 µM on hKv1.5 turned out to be 96.8%. The molecule also yielded an IC50 against human Kv1.5 of 140 nM.

For `FC(F)(F)c1nc(NCc2ccccn2)c2c(-c3ccccc3)csc2n1` [Example 151, (5-Phenyl-2-trifluoromethyl-thieno[2,3-d]pyrimidin-4-yl)-pyridin-2-ylmethyl-amine], the inhibition at 1 µM at hKv1.5 was 95%. In addition, the 50% inhibitory concentration (IC50) on human Kv1.5 worked out at 1680 nM.

The molecule `CCc1nc(NCc2ccccn2)c2c(-c3ccccc3)csc2n1` [Example 152, (2-Ethyl-5-phenyl-thieno[2,3-d]pyrimidin-4-yl)-pyridin-2-ylmethyl-amine] had an inhibition at 1 µM against hKv1.5 of 98.7%. On human Kv1.5, this molecule had an IC50 of 390 nM.

In turn, `CCc1nc(NCc2ccco2)c2c(-c3ccccc3)csc2n1` [Example 153, (2-Ethyl-5-phenyl-thieno[2,3-d]pyrimidin-4-yl)-furan-2-ylmethyl-amine] registered an inhibition at 1 µM against hKv1.5 of 96.8%. At human Kv1.5, this molecule showed an IC50 of 3630 nM.

For the molecule `Cc1nc(NCc2ccccn2)c2c(-c3ccc(F)cc3)csc2n1` [Example 155, [5-(4-Fluorophenyl)-2-methyl-thieno[2,3-d]pyrimidin-4-yl]-pyridin-2-ylmethyl-amine], at hKv1.5, the inhibition at 1 µM was determined as 92.2%. This molecule displayed an IC50 against human Kv1.5 of 1620 nM.

`Cc1sc2ncnc(NCc3ccccn3)c2c1-c1ccccc1` [Example 157, (6-Methyl-5-phenyl-thieno[2,3-d]pyrimidin-4-yl)-pyridin-2-ylmethyl-amine] came in with an inhibition at 1 µM on hKv1.5 of 88%. The molecule also displayed a half-inhibitory concentration (IC50) on human Kv1.5 of 240 nM.

For `c1ccc(-c2csc3ncnc(NC4CCCc5ccccc54)c23)cc1` (stereo not drawn) [Example 158, (5-Phenyl-thieno[2,3-d]pyrimidin-4-yl)-(1,2,3,4-tetrahydro-naphthalen-1-yl)-amine], at 1 µM the inhibition on hKv1.5 was 83.4%. 17700 nM corresponded to half-maximal inhibition on human Kv1.5 (IC50).

As to `Cc1sc2ncnc(N3CCCCC3)c2c1-c1ccccc1` [Example 159, 6-Methyl-5-phenyl-4-piperidin-1-yl-thieno[2,3-d]pyrimidine], the inhibition at 1 µM on hKv1.5 came to 83%. The same molecule returned an IC50 at human Kv1.5 of 13400 nM.

As to `c1ccc(-c2csc3ncnc(NCc4csc(-c5cccs5)n4)c23)cc1` [Example 161, (5-Phenyl-thieno[2,3-d]pyrimidin-4-yl)-(2-thiophen-2-yl-thiazol-4-ylmethyl)-amine], the inhibition at 1 µM against hKv1.5 is 79.4%. Also, the IC50 against human Kv1.5 is 25500 nM.

Molecule `c1ccc(-c2nc(CNc3ncnc4scc(-c5ccccc5)c34)cs2)cc1` [Example 162, (2-Phenyl-thiazol-4-ylmethyl)-(5-phenyl-thieno[2,3-d]pyrimidin-4-yl)-amine] displayed an inhibition at 1 µM against hKv1.5 of 74.5%. Besides, half-maximal inhibition against human Kv1.5 (IC50) required 19700 nM.

On to `c1ccc(CCNc2ncnc3scc(-c4cccs4)c23)cc1` [Example 163, Phenethyl-(5-thiophen-2-yl-thieno[2,3-d]pyrimidin-4-yl)-amine], for which the inhibition at 1 µM against hKv1.5 amounted to 70.8%. Moreover, the IC50 against human Kv1.5 turned out to be 14300 nM.

As for `Brc1sc2ncnc(NCc3ccccn3)c2c1-c1ccccc1` [Example 164, (6-Bromo-5-phenyl-thieno[2,3-d]pyrimidin-4-yl)-pyridin-2-ylmethyl-amine], at hKv1.5, the inhibition at 1 µM came to 92.8%. The molecule further returned an IC50 against human Kv1.5 of 530 nM.

Turning to `Brc1sc2ncnc(NCc3ccco3)c2c1-c1ccccc1` [Example 165, (6-Bromo-5-phenyl-thieno[2,3-d]pyrimidin-4-yl)-furan-2-ylmethyl-amine], testing at 1 µM at hKv1.5 gave an inhibition of 91%. This molecule yielded an IC50 at human Kv1.5 of 1600 nM.
